The source made the active and inactive calls.
Experiments:
SUMO-activating enzyme = SUMO-activating enzyme (Homo sapiens, UniProt Q9UBT2); experiment: SUMOylation inhibitor hit validation, confirmation, SUMOylation inhibitor project, biochemical, AlphaScreen (AID 2018); type: functional
[1] = inhibitors of intracellular T. cruzi replication, confirmation, NIH3T3 host cells, beta-gal luminescence (AID 2044); type: functional, cell-based;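 further: intracellular parasites grown in NIH/3T3 mouse fibroblasts as host cells; luminescent beta-galactosidase reporter signal from transgenic T. cruzi replicating inside host cells; inhibitors lower the luminescence signal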
[2] = biological target: Glucose-6-phosphate 1-dehydrogenase (Homo sapiens, UniProt P11413); experiment: human G6PD enzyme inhibitors, dose response, selectivity assay for P. falciparum G6PD inhibitor project, biochemical, fluorescence (AID 504792); type: functional
Chain of Glucose-6-phosphate 1-dehydrogenase (P11413 whole entry): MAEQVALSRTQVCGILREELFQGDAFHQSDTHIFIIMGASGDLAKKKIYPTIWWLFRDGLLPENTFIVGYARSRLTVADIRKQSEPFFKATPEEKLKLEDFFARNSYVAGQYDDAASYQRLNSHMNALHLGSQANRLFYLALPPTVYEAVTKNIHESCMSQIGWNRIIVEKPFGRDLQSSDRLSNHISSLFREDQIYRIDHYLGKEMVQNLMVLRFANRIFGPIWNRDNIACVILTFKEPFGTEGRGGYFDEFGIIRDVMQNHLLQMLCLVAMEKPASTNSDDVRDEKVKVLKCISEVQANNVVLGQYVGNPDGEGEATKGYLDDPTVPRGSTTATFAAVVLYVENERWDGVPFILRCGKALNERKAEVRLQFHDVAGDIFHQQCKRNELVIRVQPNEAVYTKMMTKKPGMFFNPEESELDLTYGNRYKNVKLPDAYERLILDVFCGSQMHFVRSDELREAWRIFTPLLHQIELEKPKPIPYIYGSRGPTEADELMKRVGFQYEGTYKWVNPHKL

[3] = cytotoxicity toward NIH3T3 fibroblasts, dose response, counter-screen, cell-based, ATP luminescence, mouse fibroblasts (AID 2010); type: functional;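 further: cells exposed to compound for about 90 hours before reading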
Escherichia coli [4] = experiment: microbe, parasite or virus in culture
Escherichia coli [5] = experiment: microbe, parasite or virus in culture; remark: listed apart in the source
[6] = A cytotoxicity screen of small molecule inhibitors of the PhoP region in Salmonella typhi identified in the primary screen. [Related pubchem assays: 1850, 1864, 1985 ]; type: functional
[7] = cytotoxicity toward DRD oncogenic fibroblasts, dose response, cell-based, non-viral oncogenic, luminescence (AID 1934); type: functional; conditions: Homo sapiens
Nonstructural protein 1 = Nonstructural protein 1 (Influenza A virus, UniProt Q194T2); type: functional, Influenza A virus (A/California/07/2009(H1N1))
Chain of Nonstructural protein 1 (Q194T2 whole entry): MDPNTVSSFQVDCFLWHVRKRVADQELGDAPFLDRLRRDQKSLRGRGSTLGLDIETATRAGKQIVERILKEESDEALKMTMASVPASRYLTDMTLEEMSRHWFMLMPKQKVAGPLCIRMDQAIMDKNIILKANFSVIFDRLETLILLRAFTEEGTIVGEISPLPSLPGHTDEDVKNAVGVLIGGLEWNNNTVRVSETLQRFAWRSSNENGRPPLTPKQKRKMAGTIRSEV

INS1 = experiment: beta cell apoptosis inhibitors, cytokine rescue, dose response, luminescence, retest (AID 449756); type: functional, cell-based; conditions: Rattus norvegicus;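 further: cell death triggered by IL-1 beta plus TNF-alpha plus IFN-gamma mixture; protective hits raise ATP signal compared with cytokine alone wells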
Vero [8] = experiment: cells; type: functional, cell-based; conditions: Chlorocebus sabaeus
Vero [9] = experiment: cells; type: functional; conditions: Chlorocebus sabaeus
[10] = C. albicans growth with fluconazole, confirmation, fluorescence, retest (AID 2467); type: functional, cell-based
[11] = NIH-3T3 fibroblast cytotoxicity, dose response, cytotoxicity control, cell-based, fluorescence, Alamar Blue, secondary assay (AID 2327); type: functional;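 further: NIH-3T3 mouse fibroblasts cultured with fluconazole at 8 µg/mL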
BJ [12] = experiment: cells; type: functional, cell-based; conditions: Homo sapiens
BJ [13] = experiment: cytotoxicity toward BJ-TERT fibroblasts, dose response, cell-based, RAS-independent, luminescence (AID 1933); type: functional; conditions: Homo sapiens
BJ [14] = experiment: cytotoxicity toward BJ-TERT-LT-ST fibroblasts, dose response, cell-based, RAS-independent, luminescence (AID 1935); type: functional; conditions: Homo sapiens;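 further: BJ fibroblasts immortalized with TERT plus LT and ST oncogenes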
[15] = growth induction of Burl-1 ts yeast mutant, dose response, counter-screen for SUMOylation pathway inhibitor project, whole organism, S. cerevisiae, luminescence (AID 463199); type: functional
Coagulation factor XII = biological target: T1, Coagulation factor XII (Homo sapiens, UniProt P00748); experiment: Factor XIIa Dose Response Confirmation from Single Well HTS. [Related pubchem assays (depositor defined):AID701]; type: functional
T1 sequence (P00748 whole entry): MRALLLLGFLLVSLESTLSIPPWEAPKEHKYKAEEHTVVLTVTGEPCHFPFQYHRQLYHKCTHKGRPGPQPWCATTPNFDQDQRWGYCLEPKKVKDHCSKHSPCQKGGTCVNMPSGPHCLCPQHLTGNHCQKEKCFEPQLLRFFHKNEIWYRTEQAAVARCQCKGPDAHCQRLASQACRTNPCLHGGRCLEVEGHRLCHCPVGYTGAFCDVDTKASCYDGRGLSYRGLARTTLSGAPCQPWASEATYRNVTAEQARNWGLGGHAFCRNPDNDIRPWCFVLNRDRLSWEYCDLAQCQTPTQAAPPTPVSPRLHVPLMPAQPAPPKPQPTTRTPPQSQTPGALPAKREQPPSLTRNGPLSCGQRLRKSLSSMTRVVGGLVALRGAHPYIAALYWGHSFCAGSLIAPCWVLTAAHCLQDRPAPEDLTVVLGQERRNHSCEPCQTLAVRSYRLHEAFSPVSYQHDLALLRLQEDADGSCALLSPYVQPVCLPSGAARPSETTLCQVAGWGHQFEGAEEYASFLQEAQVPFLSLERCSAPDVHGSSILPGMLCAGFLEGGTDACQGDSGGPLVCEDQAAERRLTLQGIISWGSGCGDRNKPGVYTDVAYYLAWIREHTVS

Chain of SUMO-activating enzyme (Q9UBE0 whole entry): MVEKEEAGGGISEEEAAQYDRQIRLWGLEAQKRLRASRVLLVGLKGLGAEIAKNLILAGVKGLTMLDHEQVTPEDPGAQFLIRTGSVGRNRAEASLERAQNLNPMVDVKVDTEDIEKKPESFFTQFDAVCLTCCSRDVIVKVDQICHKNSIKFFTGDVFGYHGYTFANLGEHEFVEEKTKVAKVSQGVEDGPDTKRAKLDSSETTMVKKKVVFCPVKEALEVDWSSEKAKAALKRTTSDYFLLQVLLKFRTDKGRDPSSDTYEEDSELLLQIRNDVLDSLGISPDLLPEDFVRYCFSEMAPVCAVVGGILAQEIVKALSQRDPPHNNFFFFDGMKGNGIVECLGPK
Chain of SUMO-activating enzyme (Q9UBT2 whole entry): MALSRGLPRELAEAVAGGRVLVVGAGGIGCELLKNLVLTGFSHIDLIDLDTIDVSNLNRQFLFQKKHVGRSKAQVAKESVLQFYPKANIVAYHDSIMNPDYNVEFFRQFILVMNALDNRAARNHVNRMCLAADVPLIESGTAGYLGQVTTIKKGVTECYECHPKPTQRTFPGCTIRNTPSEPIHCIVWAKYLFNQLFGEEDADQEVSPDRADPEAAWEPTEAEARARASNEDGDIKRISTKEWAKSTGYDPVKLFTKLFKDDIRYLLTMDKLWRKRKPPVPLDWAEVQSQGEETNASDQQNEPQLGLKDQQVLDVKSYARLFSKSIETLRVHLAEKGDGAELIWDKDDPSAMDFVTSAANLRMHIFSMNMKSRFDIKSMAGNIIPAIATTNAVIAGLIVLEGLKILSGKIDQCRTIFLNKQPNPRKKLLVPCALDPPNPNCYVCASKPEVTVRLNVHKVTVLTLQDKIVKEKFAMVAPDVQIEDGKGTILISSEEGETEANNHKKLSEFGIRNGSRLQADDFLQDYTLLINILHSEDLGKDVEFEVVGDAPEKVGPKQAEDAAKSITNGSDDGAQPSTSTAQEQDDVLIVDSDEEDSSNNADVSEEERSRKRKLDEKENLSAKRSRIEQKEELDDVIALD

**Q.** For Cc1ccc2oc(-c3ccc(C)c(NC(=O)Cc4cccs4)c3)nc2c1, which IC50 (SUMO-activating enzyme) is on record?
**A.** > 100 µM (inactive)

**Q.** For O=[N+]([O-])c1ccc(Sc2cccc3cccnc23)c2cccnc12, which EC50 [1] is on record?
**A.** 0.666 µM (active)

**Q.** And the IC50 [2]?
**A.** > 80 µM (inactive)

**Q.** And the EC50 [3]?
**A.** > 30 µM (not active)

**Q.** What does the source list for O=C1OCCN1/N=C/c1ccc([N+](=O)[O-])o1 [FURAZOLIDONE]?
**A.** AC50 (Escherichia coli [4]): 17.8 µM (active); AC50 (Escherichia coli [5]): 24.4 µM (active); EC50 [6]: > 50 µM (active)

**Q.** What does the source list for C/C(=N\NC(=O)c1cc(-c2cccs2)nc2ccccc12)c1ccccn1?
**A.** EC50 [7]: 1.41 µM (active); IC50 (Nonstructural protein 1): 4.52 µM (active); AC50 (INS1): 0.366 µM (active); IC50 (Vero [8]): > 25 µM (active); CC50 (Vero [9]): 1.62 µM (active); EC50 [10]: 1.19 µM (active); EC50 [11]: 2.71 µM (inconclusive); EC50 (BJ [12]): 2.12 µM (active); EC50 (BJ [13]): 1.3 µM (active); EC50 (BJ [14]): 1.14 µM (active)

**Q.** Which AC50 [15] does the source give for COc1ccc(OC)c(-c2cc(C(=O)Nc3c(C)nn(Cc4ccccc4Cl)c3C)no2)c1 here?
**A.** 47.9 µM (active)

**Q.** Which IC50 (Vero [8]) does the source give for Cc1ccc2[nH]c(CN3CCC(CO)(CC4CCCCO4)CC3)c(C)c2c1 (stereo not given) here?
**A.** > 25 µM (active)

**Q.** With FC(F)(F)c1cnc(Oc2ccc(-c3nnco3)cc2)c(Cl)c1 as the compound, how does the IC50 (Coagulation factor XII) read?
**A.** > 50 µM (inactive)
